Measured values: US10512626B2, “Compositions for use in treating glioblastoma” (PELOTON THERAPEUTICS, INC., priority 2015, dated 2019)

These compounds were tested against T1, HIF-2α HIS TAG-PASB Domain (Homo sapiens, UniProt Q99814) (assay: HIF-2α Scintillation Proximity Assay (SPA)). Details: displacement of tritiated probe Compound 183.
T1 construct: 100 nM HIF-2α HIS TAG-PASB Domain
Type: binding
Procedure: The total assay volume was about 100 μL in the following configuration: 2 μL compound in 100% DMSO, 88 μL buffer with protein and probe and 10 μL of SPA beads. […] The percent inhibition was determined and IC50 values were calculated using the Dotmatics system based on the following equation: % inhibition=[(high control−sample)/(high control−low control)]×100.

T1 sequence (Q99814 240-350 limits assumed): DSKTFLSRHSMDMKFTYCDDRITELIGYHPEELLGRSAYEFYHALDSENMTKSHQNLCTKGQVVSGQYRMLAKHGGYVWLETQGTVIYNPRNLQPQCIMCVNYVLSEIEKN

| IC50 [nM] | SMILES |
| --- | --- |
| > 1000 | CS(=O)(=O)c1ccc(Nc2cc(F)cc(C#N)c2)c2c1[C@H](O)C(F)(F)C2 [Compound 502] |
| 250 to 1000 | O=S(=O)(c1ccc(O[C@H]2C[C@H](O)C2)c2c1[C@H](O)C(F)(F)C2)C(F)(F)F [Compound 644] |
| 50 to 249 | FC(F)COc1ccc(C(F)(F)F)c2c1C[C@H](F)[C@H]2F [Compound 697] |
| < 50 | CS(=O)(=O)c1ccc(O[C@H]2C[C@H](C#N)C2)c2c1[C@H](O)C(F)(F)[C@@H]2F [Compound 760] |

These compounds were tested on 786-O-Hif-Luc cells (luciferase gene driven by multiple HIF responsive elements) (assay: Luciferase Assay (HIF reporter)). Details: 24 h, read-out: Mean Luciferase EC50 (nM).
Procedure: A pool of infected cells were then selected against 2 μg/mL of puromycin (P8833, Sigma) for 10 days followed by limited dilution to select single clones.
Each concentration was tested in triplicate. After about 24 hours, luciferase activity was determined using ONE-Glo Luciferase Assay Reagent (E6110, Promega) following the manufacturer's recommended procedure. EC50 were calculated using Dotmatics software.

| EC50 [nM] | SMILES |
| --- | --- |
| 250 to 1000 | C[C@H]1C[C@@H](O)c2c(S(=O)(=O)C(F)F)ccc(Oc3cc(F)cc(Cl)c3)c21 [Compound 7a] |
| 250 to 1000 | O=S(=O)(c1ccc(Oc2cc(F)cc(Cl)c2)c(Cl)c1CO)C(F)F [Compound 41] |
| 50 to 249 | N#Cc1cc(F)cc(Oc2ccc(S(=O)(=O)C(F)(F)F)c3c2CC[C@H]3O)c1 [Compound 57] |
| 250 to 1000 | N#Cc1cccc(Oc2ccc(S(=O)(=O)C(F)F)c3c2CC[C@H]3O)c1 [Compound 156] |
| < 50 | CS(=O)(=O)c1ccc(Oc2cc(F)cc(C#N)c2)c2c1[C@H](O)C(F)(F)C2 [Compound 163, (S)-3-((2,2-Difluoro-1-hydroxy-7-(methylsulfonyl)-2,3-dihydro-1H-inden-4-yl)oxy)-5-fluorobenzonitrile] |
| 50 to 249 | CS(=O)(=O)c1ccc(Oc2cc(F)cc(C#N)c2)c2c1[C@H](N)C(F)(F)C2 [Compound 165] |
| < 50 | N#Cc1cc(Cl)cc(Oc2ccc(S(=O)(=O)CF)c3c2CC(F)(F)[C@H]3O)c1 [Compound 167] |
| 50 to 249 | CCS(=O)(=O)c1ccc(Oc2cc(F)cc(C#N)c2)c2c1[C@H](O)C(F)(F)C2 [Compound 206] |
| 50 to 249 | CS(=O)(=O)c1ccc(Oc2cc(F)cc(C#N)c2)c2c1C(O)C(F)(F)C2 (stereo not shown) [Compound 223] |
| > 1000 | CS(=O)(=O)c1ccc(Oc2cc(F)cc(C#N)c2)c2c1[C@@H](O)C(F)(F)C2 [Compound 226] |
| < 50 | [2H]C([2H])([2H])S(=O)(=O)c1ccc(Oc2cc(F)cc(C#N)c2)c2c1[C@]([2H])(O)C(F)(F)C2 [Compound 229] |
| < 50 | CS(=O)(=O)c1ccc(Oc2cc(F)cc(C#N)c2)c2c1[C@H](O)[C@H](F)C2 [Compound 231] |
| < 50 | CS(=O)(=O)c1ccc(Oc2cc(F)cc(C#N)c2)c2c1C(O)C(F)C2 (stereo not shown) [Compound 232] |
| < 50 | CS(=O)(=O)c1ccc(Oc2cc(Cl)cc(C#N)c2)c2c1[C@H](O)C(F)(F)C2 [Compound 234] |
| < 50 | N#Cc1cncc(Oc2ccc(S(=O)(=O)C(F)(F)F)c3c2CC(F)(F)[C@H]3O)c1 [Compound 235] |
| < 50 | [2H][C@]1(O)c2c(S(C)(=O)=O)ccc(Oc3cc(F)cc(C#N)c3)c2CC1(F)F [Compound 247] |
| 50 to 249 | CNS(=O)(=O)c1ccc(Oc2cc(F)cc(F)c2)c2c1[C@H](O)C(F)(F)C2 [Compound 251] |
| 50 to 249 | N#Cc1cc(F)cc(Oc2ccc(S(N)(=O)=O)c3c2CC(F)(F)[C@H]3O)c1 [Compound 252] |
| 50 to 249 | CNS(=O)(=O)c1ccc(Oc2cc(F)cc(C#N)c2)c2c1[C@H](O)C(F)(F)C2 [Compound 254] |
| < 50 | NS(=O)(=O)c1ccc(Oc2cc(F)cc(F)c2)c2c1[C@H](O)C(F)(F)C2 [Compound 256] |
| 250 to 1000 | CS(=O)(=O)c1ccc(Oc2cc(F)cc(C#N)c2)c2c1[C@H](O)[C@@H](F)C2 [Compound 271] |
| 50 to 249 | N#Cc1cc(F)cc(Oc2ccc(S(=O)(=O)C(F)(F)F)c3c2CC(F)(F)[C@H]3N)c1 [Compound 290] |
| < 50 | N#Cc1cc(F)cc(Oc2ccc(S(N)(=O)=O)c3c2[C@@H](F)C(F)(F)[C@H]3O)c1 [Compound 338] |
| 250 to 1000 | N#Cc1cc(F)cc(Oc2ccc(S(N)(=O)=O)c3c2[C@H](F)C(F)(F)[C@H]3O)c1 [Compound 339] |

| SMILES | EC50 [nM] |
| --- | --- |
| O=S(=O)(c1ccc(Oc2cc(F)cc(Cl)c2)c(C(F)F)c1)C(F)(F)F [Compound 124] | 250 to 1000 |
| N#Cc1cc(F)cc(Oc2ccc(S(=O)(=O)C(F)F)c3c2CC[C@H]3O)c1 [Compound 155] | 50 to 249 |
| CS(=O)(=O)c1ccc(Oc2cc(F)cc(C#N)c2)c2c1[C@H](O)[C@H](F)[C@@H]2F [Compound 289, 3-[(1S,2S,3R)-2,3-difluoro-1-hydroxy-7-methylsulfonyl-indan-4-yl]oxy-5-fluoro-benzonitrile] | < 50 |

Same assay, conditions: 24 h, read-out: Mean Luciferase EC50 (nM), 786-O-Hif-Luc cells, about 24 hours

| EC50 [nM] | SMILES |
| --- | --- |
| 250 to 1000 | O=S(=O)(c1ccc(O[C@H]2C[C@H](O)C2)c2c1[C@H](O)C(F)(F)C2)C(F)(F)F [Compound 644] |
| 50 to 249 | FC(F)COc1ccc(C(F)(F)F)c2c1C[C@H](F)[C@H]2F [Compound 697] |
| 50 to 249 | CS(=O)(=O)c1ccc(OC2CC(C#N)C2)c2c1[C@H](O)C(F)(F)[C@@H]2F (stereo partly shown) [Compound 760] |

The compounds below were run on VEGF concentration in culture medium of 786-O cells (assay: VEGF ELISA Assay). Details: Homo sapiens, 786-0.
Type: cell-based
Procedure: Each concentration was plated in duplicate. About 20 hours later, medium was removed by suction and each well was supplied with 180 μL of growth medium. About 20 µl freshly-made 10× compound stocks were added to each well. […] The EC50 was calculated by GraphPad Prism using the dose-response-inhibition (four parameter) equation. The cell-seeded plate was then subjected to CellTiter-Glo luminescence cell viability assay (Promega) by adding 50 μL of Celltiter Glo reagent into each well and shaking the plate for 8 minutes at 550 rpm (Thermomixer R, Eppendorf) then the luminescence signal immediately read in a plate reader (3 second delay, 0.5 second/well integration time, Synergy 2 multi Detection Microplate reader).

| EC50 [nM] | SMILES |
| --- | --- |
| 250 to 1000 | O=S(=O)(c1ccc(Oc2cc(F)cc(Cl)c2)c2c1[C@H](O)CC2)C(F)F [Compound 1] |
| 50 to 249 | O=S(=O)(c1ccc(Oc2cc(F)cc(Cl)c2)c2c1C(O)CC2)C(F)F (stereo not shown) [Compound 17] |
| 250 to 1000 | O=S(=O)(c1ccc(Oc2cc(F)cc(Cl)c2)c(Cl)c1CO)C(F)F [Compound 41] |
| 50 to 249 | N#Cc1ccc(Oc2cc(F)cc(F)c2)c2c1[C@H](O)C(F)(F)C2 [Compound 67] |
| 250 to 1000 | N#Cc1cc(F)cc(Oc2ccc(S(=O)(=O)C(F)F)c3c2CCC3O)c1 (stereo not shown) [Compound 78] |
| 50 to 249 | CS(=O)(=O)c1ccc(Oc2cc(Cl)cc(C#N)c2)c2c1[C@H](O)C(F)(F)C2 [Compound 234] |
| 50 to 249 | CS(=O)(=O)c1ccc(OC2CC(C#N)C2)c2c1[C@H](O)C(F)(F)[C@@H]2F (stereo partly shown) [Compound 760] |

| SMILES | EC50 [nM] |
| --- | --- |
| O=S(=O)(c1ccc(Oc2cc(F)cc(Cl)c2)c(C(F)F)c1)C(F)(F)F [Compound 124] | 250 to 1000 |
| N#Cc1cc(F)cc(Oc2ccc(S(=O)(=O)C(F)F)c3c2CC[C@H]3O)c1 [Compound 155] | 50 to 249 |
